This note sets out measurements from ChEMBL document CHEMBL1128147, “Mechanistic support for the stepwise process for inactivation of class A -lactamases by clavulanate” (Bioorg Med Chem Lett, 1995).

Experiment [1] concerns Beta-lactamase TEM (Escherichia coli). In words: Effect on rate of recovery of TEM-2 beta lactamase from transient inhibition.
Experiment [2] can be described thus: Partition ratio between Kcat (for beta lactamase) and Kinact (for beta lactamase) was determined.
In experiment [3] the target is Beta-lactamase (Enterobacter cloacae) (UniProt P05364).
Description: K2 for inactivation of TEM-1 beta-lactamase
Experiment [4] is described as follows: Partition ratio between Kcat and Kinact was determined.
Experiment [5] concerns the target Beta-lactamase (Enterobacter cloacae) (UniProt P05364). The source holds these as a separate data set.
Description: K3 for inactivation of TEM-1 beta-lactamase
The target is the same in experiment [6]. This is another data set of the same source.
Description: Kcat for inactivation of TEM-1 beta-lactamase
Experiment [7] has the same target. The source holds these as a separate data set.
Description: Ks for inactivation of TEM-1 beta-lactamase

Chain of Beta-lactamase (Enterobacter cloacae) (P05364 21-381 limits assumed): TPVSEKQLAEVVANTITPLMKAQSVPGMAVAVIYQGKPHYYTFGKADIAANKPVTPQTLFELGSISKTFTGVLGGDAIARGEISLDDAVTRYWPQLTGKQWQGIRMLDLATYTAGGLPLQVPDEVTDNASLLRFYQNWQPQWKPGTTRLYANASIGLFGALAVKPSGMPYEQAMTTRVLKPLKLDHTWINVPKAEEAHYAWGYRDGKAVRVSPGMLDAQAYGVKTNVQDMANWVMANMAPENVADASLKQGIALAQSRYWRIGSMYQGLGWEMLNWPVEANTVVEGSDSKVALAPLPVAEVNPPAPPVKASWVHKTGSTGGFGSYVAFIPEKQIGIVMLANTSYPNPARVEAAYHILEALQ

The compound `O=C1C[C@H]2O/C(=C\CO)[C@H](CO)N12` came in with a Rate of recovery in experiment [1] of 0.002 s⁻¹.
On to `C/C=C1\O[C@@H]2CC(=O)N2[C@H]1C(=O)O`, for which the Ratio in experiment [2] is 390.
For `O=C(O)[C@H]1C(CCO)O[C@@H]2CC(=O)N21` (some centres not stated), the K2 in experiment [3] came to 42 s⁻¹. The Ratio in experiment [4] amounted to 3.7e+06. In experiment [5], this compound had a K3 of 10 s⁻¹. Also, the k cat in experiment [6] amounted to 8 s⁻¹. In experiment [7], this compound returned a Ks of 11.6 µM.
